Measured values as given in US5618791A, “Memory enhancing peptides” (Shanghai Institute of Biochemistry, priority 1992, dated 1997).
Square brackets hold non-standard residues; d marks the D form. Ends that are not written are not given here. Peptide text beside a SMILES is read from it. pGlu = O=C1CC[C@@H](C(=O)O)N1; Hme = not defined here

Experiments:
adult rats [1] = experiment: Passive avoidance response of adult rats, step-through one trial learning test in a shuttle box; type: in vivo
Procedure: (§1) Biological activities of MEPs of the invention are confirmed by bioassay. Blood pressure measurements and urine output measurements were performed on adult rats after intravenous administration of MEPs under ether anesthesia. Passive avoidance behavior of adult rats was carried out in a step-through one trial learning test in a shuttle box, and brightness discrimination tests were performed in a radiant Y maze. Rats neonatally administered with MEPs of the invention were trained during an immature period and subsequently tested as adults.
(§2) Memory enhancing responses were assessed by two kinds of behavioral records, i.e., passive avoidance response of adult rats in a shuttle box and the performance in a radiant Y maze in the acquisition and retention of brightness discrimination of rats neonatally administered. The results are set out in Table I. All MEPs of the invention show significant positive behavioral responses when rats have received a subcutaneous administration of MEP within the dosage range 1 ng-1 μg per animal. MEPs of the invention show a memory enhancing potency 10-100 times that of AVP.

adult rats [2] = details: cited from earlier work
rats = experiment: Brightness discrimination test in a radiant Y maze; type: in vivo, rat; details: adult rats; oral 20 μg/kg/day for 30 days
Procedure: as §1, §2
Additionally, oral administration of NLPR to adult rats at a dose of 20 μg/kg/day for 30 days produced a positive brightness discrimination assay.

Molecule | Passive Avoidance adult rat effective dose (adult rats [1]) | acquisition of active or passive avoidance responses (adult rats [2]) | extinction of active or passive avoidance responses (adult rats [2]) | brightness discrimination assay (rats)
NC(=O)CC[C@@H]1NC(=O)[C@H](Cc2ccccc2)NC(=O)[C@H](Cc2ccc(O)cc2)NC(=O)[C@@H](N)CSSC[C@@H](C(=O)N2CCC[C@H]2C(=O)N[C@@H](CCCN=C(N)N)C(=O)NCC(N)=O)NC(=O)[C@H](CC(N)=O)NC1=O [AVP, arginine vasopressin] | 300-1000 ng/200 g body wt. | no effect | retarded | –
CC(=O)N[C@@H](CC(N)=O)C(=O)N[C@@H](CC(C)C)C(=O)N1CCC[C@H]1C(=O)N[C@@H](CCCNC(=N)N)C(N)=O [AcNLPR--NH2] (Ac-NLPR-NH2) | 3-10 ng/200 g body wt. | – | – | –
CC(C)C[C@H](NC(=O)[C@@H](N)CC(N)=O)C(=O)N1CCC[C@H]1C(=O)N[C@@H](CCCNC(=N)N)C(=O)O [NLPR] (H-NLPR-OH) | 3-10 ng/200 g body wt. | – | – | positive
CC(C)C[C@H](NC(=O)[C@H](CC(N)=O)NC(=O)[C@@H]1CCC(=O)N1)C(=O)N1CCC[C@H]1C(=O)N[C@@H](CCCNC(=N)N)C(=O)O [ZNLPR] ([pGlu]NLPR-OH) | 10 ng/200 g body wt. | – | – | –
ZN(Hme)PR: pyroglutamyl-Asn-Hme-Pro-Arg; Hme = Homomethionine (Smethylcysteine) ([pGlu]N[Hme]PR; reading uncertain; also: printed as ZN(Hme)PR) | 10-100 ng/200 g body wt. | – | – | –
